Source: BigSolDB 2.1

Cc1ccc(Nc2nccc(N(C)c3ccc4c(C)n(C)nc4c3)n2)cc1S(N)(=O)=O
solubility (mole fraction)
Settings | 288.15 K | 293.15 K | 298.15 K | 303.15 K | 308.15 K | 313.15 K | 318.15 K | 323.15 K | 328.15 K
in acetonitrile | 1.08e-06 | 3.07e-06 | 5.16e-06 | 7.86e-06 | 1.11e-05 | 1.44e-05 | 1.8e-05 | 2.21e-05 | 2.72e-05
in n-butanol | 1.07e-05 | 1.46e-05 | 1.88e-05 | 2.34e-05 | 2.86e-05 | 3.42e-05 | 4.04e-05 | 4.7e-05 | 5.43e-05
in n-propanol | 9.96e-06 | 1.33e-05 | 1.67e-05 | 2.09e-05 | 2.55e-05 | 3.1e-05 | 3.65e-05 | 4.39e-05 | 5.11e-05
